Experimental data reported in patent US11234971B2, “Methods of treating cancer comprising administration of a glucocorticoid receptor modulator and a cancer chemotherapy agent” (Corcept Therapeutics Incorporated, priority 2018, dated 2022).
pKi: −log10 of the molar value.

Columns and labels:
GR-controlled genes = test: Whole blood mRNA expression (NanoString) in cancer patients of study NCT02762981, baseline vs C1D15; format: in vivo, human; conditions: for expression levels of COX2, DUSP1, GSK3b, MCL-1, PIK3CG and RGS-2 (mRNA): 40 cancer patients (FIG. 5B); for genes downregulated in whole blood, baseline to C1D15: 800-gene panel, relacorilant+nab-paclitaxel; for enrichment of genes shared in the sets induced by prednisone and suppressed by relacorilant / genes shared in the sets induced by prednisone and suppressed by relacorilant: top 200 genes each
Description: Blood was collected at baseline, prior to administration of relacorilant or nab-paclitaxel. Blood was also drawn in the morning, pre-dose, on cycle 1, day 15. Blood (in the amount of 2.5 milliLiters (mL)) was drawn into a PAXGene blood RNA tube (Qiagen) using a butterfly needle. The tube was sealed and gently inverted 10 times. The tube was frozen in dry ice and stored at −80° C. until RNA extraction.
Paired baseline and cycle 1, day 15 (C1D15) specimens were thawed and processed in the same batch. RNA was isolated using the PAXgene Blood RNA kit (Qiagen) using the protocol recommended by the manufacturer. RNA yield was quantified using a NanoDrop ND-2000 spectrophotometer (ThermoFisher Scientific). RNA was assessed using a custom 33-gene panel after mRNA sample preparation and hybridization using NanoString nCounter XT Assay, following the operation and maintenance instructions for the NanoString prep station and digital analyzer. Specific RNA transcripts were quantified using a Nanostring nCounter FLEX instrument (NanoString Technologies) and analyzed using nSolver 3.0. (Nanostring Technologies, Seattle Wash., USA).
Housekeeping gene pairwise correlations were determined using nSolver 3.0 (NanoString Technologies). Test genes were normalized to the housekeeping genes HPRT1, PPIB, TRAP1, EEF1A1, and TBP. Change from baseline was calculated using the RNA counts at baseline and cycle 1, day 15 as follows: Change from Baseline=(C1D15−baseline)/(baseline) Results Housekeeping Genes Selection
Calculations For FIG. 6, the normalized counts of 10 GR-controlled genes were averaged. Change from baseline of these averaged values was calculated per patient using the formula: Percent change from baseline=((average value at C1D15)−(average value at baseline))/(average value at baseline)*100Gene set enrichment statistics were calculated using the program available at the URL: Nemates.org/MA/progs/overlap_stats_prog.html
RNA isolation and quantification RNA was assessed using a custom 800-gene panel after mRNA sample preparation and hybridization using NanoString nCounter Assay, following the operation and maintenance instructions for the NanoString prep station and digital analyzer. The 800 gene panel was comprised of the Nanostring 10360™ panel plus the following 10 custom probes:
Data normalization and analysis Housekeeping gene pairwise correlations were determined using advanced analysis in nSolver 3.0 (NanoString Technologies). Test genes were normalized to the housekeeping genes selected by geNORM. […]

[1] = tested on: OVCAR-5 human ovarian cancer cells; test: OVCAR-5 cell growth (Cell Titer-Glo) with chemotherapy agents with or without dexamethasone and relacorilant; format: cell-based
Description: The initial cell density was chosen to be low enough to allow for several population doublings (typically 3 to 5) during the indicated incubation period. […] After 48 hours of incubation, serially diluted test agents in growth medium were added to each well. After 72 hours of culture, the plated cells and Cell Titer-Glo® (Promega G7571) reagents were brought to room temperature to equilibrate for 30 minutes. 200 μL of Cell Titer-Glo® reagent was then added to each well, the plate was shaken for two minutes, and then left to equilibrate for ten minutes. The Cell Titer-Glo® cell viability assay uses ATP levels to determine cell numbers. After this equilibration, luminescence was read on the Biotech Synergy II microplate reader. The percent control (% C) of cell growth for each test concentration was calculated relative to untreated wells. All tests were performed in quadruplicate. Individual assay plates were evaluated for appropriate signal and well-to-well variance in the control wells for quality control.

progesterone receptor = progesterone receptor (Homo sapiens, UniProt P06401); conditions: cited from earlier work
MIA PaCa-2 xenograft = MIA PaCa-2 xenograft tumor growth in immunodeficient mice; format: in vivo
Description: The present example, Example 3, provides results of administration of the glucocorticoid receptor modulator relacorilant to cancerous cells. […] The MIA PaCa-2 xenograft model uses MIA PaCa-2 cell-line cells (pancreatic tumor cells derived from a pancreatic adenocarcinoma from a patient) engrafted into immunodeficient mice. The ovarian OVCAR-5 cell line is derived from a human epithelial carcinoma of the ovary, and was established from ascitic fluid obtained (prior to cytotoxic treatment) from a patient with progressive ovarian adenocarcinoma.
FIG. 10A. Relacorilant sensitizes the MIA PaCa-2 xenograft to paclitaxel. Tumor volume of PaCa-2 xenograft tumors implanted in immunodeficient mice is shown as a function of time (days) after implantation in the presence of vehicle (filled circles), paclitaxel (7.5 mg/kg; filled squares), relacorilant alone (upwardly pointing triangles), and relacorilant+7.5 mg/kg paclitaxel (downwardly pointing triangles). 7.5 mg/kg paclitaxel was administered three times (at the days indicated by the dashed vertical lines, indicating days 8, 12, and 16 following tumor implantation into the mice).
FIG. 10B. Relacorilant with Paclitaxel Reduces MIA PaCa-2 xenograft Tumor Volume. Initial tumor volume of PaCa-2 xenograft tumors implanted in immunodeficient mice was less than 400 cubic millimeters (mm^3). […] Tumor size progression is thus indicated by lines descending from the top (100%) value. The tumor-bearing mice were treated with vehicle, relacorilant (30 mg/kg every day), paclitaxel (three doses of 7.5 mg/kg paclitaxel, one dose administered on each of the days indicated in FIG. 10A), and the combination relacorilant (30 mg/kg every day) with paclitaxel (7.5 mg/kg doses of paclitaxel each administered on days 8, 12, and 16 post implantation). […] Xenograft tumor growth was slowed by combined relacorilant+paclitaxel as compared to either paclitaxel alone or relacorilant alone. Relacorilant thus enhanced sensitivity to paclitaxel in the pancreatic MIA PaCa-2 xenograft model.

[2] = patients with progressive disease
[3] = OVCAR-5, glucocorticoid 100 nM dexamethasone, relacorilant in the presence of the glucocorticoid

Sequence of progesterone receptor (P06401 whole entry, species assumed): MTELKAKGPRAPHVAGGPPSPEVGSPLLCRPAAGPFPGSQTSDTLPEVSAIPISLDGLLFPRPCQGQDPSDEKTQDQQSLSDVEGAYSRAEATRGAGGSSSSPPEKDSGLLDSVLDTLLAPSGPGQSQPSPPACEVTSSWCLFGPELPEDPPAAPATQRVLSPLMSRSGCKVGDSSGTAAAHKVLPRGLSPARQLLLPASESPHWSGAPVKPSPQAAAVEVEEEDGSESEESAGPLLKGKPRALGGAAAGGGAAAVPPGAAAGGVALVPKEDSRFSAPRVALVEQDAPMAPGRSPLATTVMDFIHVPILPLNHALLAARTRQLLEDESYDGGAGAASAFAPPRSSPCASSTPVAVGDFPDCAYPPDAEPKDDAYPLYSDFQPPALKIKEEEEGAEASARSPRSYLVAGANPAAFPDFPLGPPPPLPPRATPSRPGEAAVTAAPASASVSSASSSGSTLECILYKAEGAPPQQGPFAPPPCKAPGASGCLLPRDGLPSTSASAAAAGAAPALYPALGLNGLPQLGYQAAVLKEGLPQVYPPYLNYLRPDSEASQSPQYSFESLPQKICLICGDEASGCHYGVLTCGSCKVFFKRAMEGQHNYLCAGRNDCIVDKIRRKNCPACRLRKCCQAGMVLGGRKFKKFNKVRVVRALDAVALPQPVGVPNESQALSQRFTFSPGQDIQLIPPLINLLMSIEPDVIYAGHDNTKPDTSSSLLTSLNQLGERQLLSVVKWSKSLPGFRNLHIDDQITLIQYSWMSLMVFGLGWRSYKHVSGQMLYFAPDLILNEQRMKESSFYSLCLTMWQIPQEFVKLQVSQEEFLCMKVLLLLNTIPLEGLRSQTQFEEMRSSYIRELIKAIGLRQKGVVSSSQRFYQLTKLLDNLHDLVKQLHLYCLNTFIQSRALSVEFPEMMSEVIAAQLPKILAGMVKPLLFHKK

## Cn1cc(S(=O)(=O)N2CCC3=Cc4c(cnn4-c4ccc(F)cc4)C[C@]3(C(=O)c3cc(C(F)(F)F)ccn3)C2)cn1 [relacorilant, (R)-(1-(4-fluorophenyl)-6-((1-methyl-1H-pyrazol-4-yl)sulfonyl)-4,4a,5,6,7,8-hexahydro-1H-pyrazolo[3,4-g]isoquinolin-4a-yl)(4-(trifluoromethyl)pyridin-2-yl)methanone]
GR-controlled genes; 21 cancer patients (FIG. 5A), patients who derived benefit from relacorilant+nab-paclitaxel
  expression levels of COX2, DUSP1, GSK3b, MCL-1, PIK3CG, RGS-2, SGK1 and STAT3 (mRNA): decreased as compared to baseline
GR-controlled genes; 21 cancer patients (FIG. 5A), patients whose cancer progressed
  expression levels of COX2, DUSP1, GSK3b, MCL-1, PIK3CG, RGS-2, SGK1 (mRNA): did not exhibit decreased levels
GR-controlled genes; patients who derived benefit from relacorilant+nab-paclitaxel
  expression levels of COX2, DUSP1, GSK3b, MCL-1, PIK3CG and RGS-2 (mRNA): decreased as compared to baseline
GR-controlled genes; patients whose cancer progressed
  expression levels of COX2, DUSP1, GSK3b, MCL-1, PIK3CG and RGS-2 (mRNA): did not exhibit decreased levels
GR-controlled genes; PD patients
  genes downregulated in whole blood, baseline to C1D15: 30 genes
GR-controlled genes; SD/PR/CR patients
  genes downregulated in whole blood, baseline to C1D15: 92 genes
GR-controlled genes; all patients, relacorilant + nab-paclitaxel, paired t-test p=0.065
  normalized DUSP1 mRNA counts, baseline vs cycle 1 day 15: not significantly different
GR-controlled genes; patients experiencing benefit (SD, PR, CR), relacorilant + nab-paclitaxel, paired t-test p=0.015
  normalized DUSP1 mRNA counts, baseline vs cycle 1 day 15: significant decrease
GR-controlled genes; patients with progressive disease, relacorilant + nab-paclitaxel
  decrease in DUSP1 counts, baseline vs cycle 1 day 15: not observed
GR-controlled genes; patients who benefited
  enrichment of genes shared in the sets induced by prednisone and suppressed by relacorilant: 2.2 fold
GR-controlled genes; patients who benefited, p=3×10^−30
  genes shared in the sets induced by prednisone and suppressed by relacorilant: 116 genes
GR-controlled genes; [2]
  enrichment of genes shared in the sets induced by prednisone and suppressed by relacorilant: 0.7 fold
  genes shared in the sets induced by prednisone and suppressed by relacorilant: 38 genes
[1]; OVCAR-5, bortezumib 500 μM, palbociclib 100 μM, 100 nM dexamethasone, 300 nM relacorilant
  cell numbers (luminosity) in the presence of bortezumib and palbociclib: opposed
[1]; OVCAR-5, dexamethasone, relacorilant + dexamethasone
  maximal toxicity at high chemotherapy concentrations: reversed this
[1]; [3]
  half-maximal potency of / sensitivity to oxaliplatin: restored sensitivity to oxaliplatin
  maximum effect of / sensitivity to gemcitabine: restored sensitivity to gemcitabine
  maximum effect of / sensitivity to paclitaxel: restored sensitivity to paclitaxel
[1]; OVCAR-5, several chemotherapeutic agents
  effects of dexamethasone on response to chemotherapeutic agents: reversed the effects of dexamethasone in all cases
[1]; OVCAR-5 grown with 100 nM dexamethasone, carboplatin titrated against increasing amounts of relacorilant
  potency of carboplatin: dose-dependently increased
Progesterone receptor
  pKi: < 5.00
MIA PaCa-2 xenograft; relacorilant (30 mg/kg every day) added to paclitaxel 7.5 mg/kg days 8, 12, 16, compared to paclitaxel alone, p<0.0001
  time to progression (fraction of tumors whose volume remained below 400 mm^3): delayed the time to progression
MIA PaCa-2 xenograft; relacorilant added to 7.5 mg/kg paclitaxel (days 8, 12, 16), compared to paclitaxel alone, p<0.0001
  tumor growth (tumor volume over time): delayed tumor growth
MIA PaCa-2 xenograft; single agent, relacorilant 30 mg/kg every day or paclitaxel 7.5 mg/kg on days 8, 12, 16
  time to progression (fraction of tumors whose volume remained below 400 mm^3): nearly superimposed on the vehicle line
